Values joined by “and” are separate entries in the source; they are usually repeats but may differ in a detail not shown here. Identical values can stand only once.
Assays:
SHR = test: Antihypertensive effect (MABP by radiotelemetry) of CI-1027, amlodipine and their combination in SHR (Example 2); assay type: in vivo, rat
Method: The general procedure of Example 1 was followed to evaluate the antihypertensive efficacy of the carboxyalkylether CI-1027 alone and in combination with the calcium channel blocker amlodipine.
Male SHR (15-20 weeks old, Charles River Laboratories) were prepared with indwelling aortic catheters and radiotransmitters for continuous measurement of arterial blood pressure and heart rate. Animals were allowed food and water ad libitum. Before dosing all rats were given a minimum of 7 days for recovery from surgery.
The experiment was carried out over 22 days in 3 groups of SHR. Group I served as a control and received 2 mL/kg/day of vehicle (same as in Example 1) for 22 consecutive days. Group II, used to determined the antihypertensive response to amlodipine monotherapy, was given vehicle for the first 13 consecutive days. Then on Day 14, amlodipine was added at a dose of 0.3 mg/kg/day for 3 consecutive days. The dose was then increased to 1 mg/kg/day for the next 3 days, and on the final 3 days, 3 mg/kg/day was given. To determine the response to CI-1027 monotherapy, Group III received a 13-day treatment with CI-1027 monotherapy at a dose of 30 mg/kg/day. The antihypertensive response to the combination therapy was determined by the addition of amlodipine to ongoing CI-1027 treatment on Day 14.
Drugs were suspended or dissolved in vehicle that contains 96% water, 3% carboxymethocellulose, and 1% tween 88. Compounds were given at 9 AM daily by oral gavage in a volume of 2 mL/kg. The combination of CI-1027 and amlodipine was given as a single gavage in a volume of 2 mL/kg.

[1] = test system: spontaneously hypertensive rats (SHR); test: Antihypertensive effect (MABP by radiotelemetry) of CI-1027, quinapril and their combination in SHR (Example 1); assay type: in vivo, rat
Method: The antihypertensive effects of the carboxyalkylether compound of Formula III (CI-1027), alone and in combination with an antihypertensive agent such as quinapril (CI-906), were evaluated in rats according to the following protocol. Male spontaneously hypertensive rats (SHR, 15-20 weeks old, Charles River Laboratories, Wilmington, Mass.) were prepared with indwelling aortic catheters and radiotransmitters (Data Sciences International, Saint Paul, Minn.). The radiotransmitters provided continuous measurement of aortic blood pressure waveform. From the aortic blood pressure waveform a Ponemah (Gould Instruments Inc, Valley View, Ohio) computer provided mean arterial blood pressure (MABP) and heart rate values continuously as one-minute averages. One-minute data was then summarized at 15-minute intervals using Excel (Microsoft Corporation, Redmond, Wash.) spreadsheets. Animals were allowed food and water ad libitum. To allow for recovery following surgery, rats were not dosed for a minimum of 7 days. Day 0 predose blood pressures were obtained by averaging eight 15-minute MABP measurements made 2 hours before dosing. To obtain the peak response to treatment (Days 0, 12, 16, 19, and 22), the 15-minute MABP measurements in the interval between 2 and 4 hours post-dose were averaged. Test compounds were given in a vehicle that contained 96% water, 3% carbomethocellulose (Sigma Chemical, Saint Louis, Mo.) and 1% tween […] (polyoxyethylenesorbitan monooleate, Sigma Chemical). CI-1027 and quinapril monotherapy were administered at 8:30 AM daily by oral gavage in a volume of 2 mL/kg. The combination of CI-1027 and quinapril was given as a single gavage in a volume of 2 mL/kg. The experiment was carried out over 22 days in 4 groups of animals. Group I served as a control and received 2 mL/kg/day of vehicle for 22 consecutive days. Group II, used to determine the antihypertensive response to quinapril monotherapy, was given vehicle for the first 12 to 13 consecutive days. Then on Day 13 to 14 quinapril was added at a dose of 0.3 mg/kg/day for 3 to 4 consecutive days; the dose was then increased to 1 mg/kg/day for the next 3 days, and on the final 3 days, 3 mg/kg/day was administered. To determine the response to CI-1027 monotherapy, Groups III and IV received 12-day treatment with CI-1027 monotherapy at doses of 30 and 100 mg/kg/day, respectively. To determine the antihypertensive response to the combination therapy quinapril, was added to the ongoing CI-1027 treatment (Day 13-14) using the rising dose protocol described for Group II (quinapril monotherapy). [table]

## CCOC(=O)C1=C(COCCN)NC(C)=C(C(=O)OC)C1c1ccccc1Cl (stereo not drawn) [Amlodipine, amlodipine]
SHR; Amlodipine 0.3 mg/kg/day oral, Day 16, 4-6 h postdose
  Peak MABP: 140 ± 6 mm Hg
SHR; Amlodipine 1 mg/kg/day oral, Day 19, 4-6 h postdose
  Peak MABP: 131 ± 5 mm Hg
SHR; Amlodipine 3 mg/kg/day oral, Day 22, 4-6 h postdose
  Peak MABP: 114 mm Hg and 114 ± 5 mm Hg
SHR; amlodipine monotherapy (Group II), oral
  Threshold antihypertensive dose: 1 mg/kg/day

## CC(C)(CCCCOCCCCC(C)(C)C(=O)O)C(=O)O [CI-1027]
[1]; CI-1027 30 mg/kg/day oral, Day 0, 2-4 h postdose
  Peak MABP: 145 ± 4 mm Hg
[1]; CI-1027 30 mg/kg/day oral, Day 12, 2-4 h postdose, 30 mg/kg/day
  Peak MABP: 131 mm Hg and 131 ± 3 mm Hg
[1]; CI-1027 100 mg/kg/day oral, Day 0, 2-4 h postdose
  Peak MABP: 141 ± 4 mm Hg
[1]; CI-1027 monotherapy 30 and 100 mg/kg/day, 12 days
  Antihypertensive activity of monotherapy: modest antihypertensive activity
SHR; CI-1027 30 mg/kg/day oral, Day 0, 4-6 h postdose
  Peak MABP: 129 ± 4 mm Hg
SHR; CI-1027 30 mg/kg/day oral, Day 13, 4-6 h postdose, 30 mg/kg/day
  Peak MABP: 120 mm Hg and 120 ± 8 mm Hg
SHR; CI-1027 monotherapy 30 mg/kg/day, 13 days
  Effect of monotherapy on blood pressure: lowers blood pressure in the SHR

## CCOC(=O)[C@H](CCc1ccccc1)N[C@@H](C)C(=O)N1Cc2ccccc2C[C@H]1C(=O)O [Quinapril, quinapril]
[1]; Quinapril 0.3 mg/kg/day oral, Day 16, 2-4 h postdose
  Peak MABP: 122 ± 5 mm Hg
[1]; Quinapril 1 mg/kg/day oral, Day 19, 2-4 h postdose
  Peak MABP: 121 ± 4 mm Hg
[1]; Quinapril 3 mg/kg/day oral, Day 22, 2-4 h postdose
  Peak MABP: 117 mm Hg and 117 ± 4 mm Hg
[1]; Quinapril monotherapy, rising dose
  Antihypertensive response at 3 mg/kg/day greater than at 0.3 mg/kg/day: 5 mm Hg
